From US20210292306A1, “NOVEL INDOLE DERIVATIVE AND ANTI-CANCER CONPOSITION CONTAINING SAME” (KOREA RESEARCH INSTITUTE OF BIOSCIENCE AND BIOTECHNOLOGY, priority 2016, published 2021)
pIC50: −log10 of the molar value.

Key:
[1] = system: K562/ADR; experiment: Anti-proliferative activity in cancer cells showing multiple drug resistance (MTT assay); format: cell-based
Method: (§1) HeLa cells (ATCC, USA), which are a human cervical cancer cell line, were dispensed into a 96-well plate at 2×10^3 cells/well, and the cells were treated with DMSO or the indole derivatives of the present invention, and then allowed to grow for 4 days. And then, MTT (3-(4,5-Dimethylthiazol-2-yl)-2,5-diphenyltetrazolium bromide) reagent was added to the wells at 10 μl/well. After 2 hours, the absorbance was measured at “OD 450” and statistical values were obtained using the plizm6 program. The data represent mean values of the results of two repeated assays (Table 1). Specifically, K562 and MCF7 (Bio Evaluation Center, Korea Research Institute of Bioscience and Biotechnology, Korea), and K562/ADR and MCF7/ADR (Bio Evaluation Center, Korea Research Institute of Bioscience and Biotechnology, Korea), which are multiple drug-resistant cell lines of the above mentioned cell lines, respectively, were cultured on a microtiter plate at 1-3×10^3 cells/well.

[2] = system: MCF7/ADR; experiment: as above; format: cell-based
Method: as §1

[3] = Maximum absorbable dose in human (Table 6); conditions: for MAD (maximum absorbable dose in human): SIWV 250 ml, SITT 270
[4] = system: Several cancer cell lines; experiment: Effect on cell cycle progression, summary over the cell lines of Table 5; format: cell-based; conditions: summary over the cell lines of Table 5, 17 hours
Method: (§2) Several cancer cell lines were cultured on a 12 well plate (3×10^4 cells/well), and treated with DMSO or WCI-1031, an indole derivative of the present invention, for 17 hours, and then added with a propidium iodine dye to stain the cellular DNA, and subjected to measurement using FACS. The concentrations at which cells gathered in the G2/M phase and numbers of the cells represented as percentages were shown (Table 5).

[5] = system: HepG2; experiment: Anti-proliferative activity in other cancer cell lines (MTT assay); format: cell-based; conditions: Homo sapiens, 96 h, HepG2 (liver), 4 days, mean of three assays
Method: (§3) HeLa cells (ATCC, USA), which are a human cervical cancer cell line, were dispensed into a 96-well plate at 2×10^3 cells/well, and the cells were treated with DMSO or the indole derivatives of the present invention, and then allowed to grow for 4 days. And then, MTT (3-(4,5-Dimethylthiazol-2-yl)-2,5-diphenyltetrazolium bromide) reagent was added to the wells at 10 μl/well. After 2 hours, the absorbance was measured at “OD 450” and statistical values were obtained using the plizm6 program. The data represent mean values of the results of two repeated assays (Table 1).
(§4) Specifically, various cancer cell lines were cultured on a microtiter plate (1-3×10^3 cells/well), and the cells were treated with the indole derivative of the present invention and cultured for 4 days. Cytotoxicity was examined by the MTT assay by the same method as in Experimental Example 1-1, and the IC50 was obtained by the log-dose response curve. The data represent mean values of the results of three repeated assays (Table 2).

[6] = system: NCIH-125; experiment: as above; format: cell-based; conditions: Homo sapiens, NCI-H125, 96 h, NCIH-125 (lung), 4 days, mean of three assays
Method: as §3, §4

[7] = system: HeLa; experiment: as above; format: cell-based; conditions: Homo sapiens, 96 h, HeLa (uterine cervix), 4 days, mean of three assays
Method: as §3, §4

[8] = system: PC3; experiment: as above; format: cell-based; conditions: Homo sapiens, PC-3, 96 h, PC3 (prostate), 4 days, mean of three assays
Method: as §3, §4

[9] = system: NCIH-460; experiment: as above; format: cell-based; conditions: Homo sapiens, NCI-H460, 96 h, NCIH-460 (lung), 4 days, mean of three assays
Method: as §3, §4

[10] = system: MCF7; experiment: as above; format: cell-based; conditions: Homo sapiens, 96 h, MCF7 (breast), 4 days, mean of three assays
Method: as §3, §4

[11] = system: NCIH-125; experiment: Effect on cell cycle progression (propidium iodine, FACS); format: cell-based; conditions: NCIH-125, 17 hours
Method: as §2

[12] = system: EL4; experiment: as above; format: cell-based; conditions: EL4, 17 hours
Method: as §2

[13] = system: A172; experiment: as above; format: cell-based; conditions: A172, 17 hours
Method: as §2

[14] = system: PC3; experiment: as above; format: cell-based; conditions: PC3, 17 hours
Method: as §2

[15] = system: K562; experiment: as above; format: cell-based; conditions: K562, 17 hours
Method: as §2

[16] = system: MCF7; experiment: as above; format: cell-based; conditions: MCF7, 17 hours
Method: as §2

[17] = system: MCF7 ADR; experiment: as above; format: cell-based; conditions: 17 hours
Method: as §2

[18] = system: Hep3B; experiment: as above; format: cell-based; conditions: 17 hours
Method: as §2

[19] = Stability in blood plasma after intravenous injection; format: in vivo; conditions: plasma concentration over time (FIG. 7)
Method: In order to examine the stability of the indole derivative of the present invention in vivo, the compound of Example 1 (WCI-1031) was injected intravenously and the plasma concentration was observed over time (FIG. 7).

COC(=O)Cn1c(C)c(/C=N/NC(=O)c2cc3c(ccc4ccccc43)o2)c2ccccc21 [WCI-1031, methyl (E)-2-(2-methyl-3-((2-(naphtho[2,1-b]furan-2-carbonyl) hydrazono)methyl)-1H-indole-1-yl)acetate]
pIC50 ([1]; Homo sapiens, 96 h, K562/ADR multiple drug-resistant line, 4 days, MTT, mean of three assays): 6.50
Resistance factor ([1]; ratio of IC50 K562/ADR to IC50 K562): 0.60
pIC50 ([2]; Homo sapiens, NCI/ADR-RES, 96 h, MCF7/ADR multiple drug-resistant line, 4 days, MTT, mean of three assays): 6.32
Resistance factor ([2]; ratio of IC50 MCF7/ADR to IC50 MCF7): 0.36
Ka (intestinal absorption rate constant) ([3]; pH 6.5): 0.03 min⁻¹
MAD (maximum absorbable dose in human) ([3]; pH 6.5): 1.8 mg
Ka (intestinal absorption rate constant) ([3]; pH 7.4): 0.03 min⁻¹
MAD (maximum absorbable dose in human) ([3]; pH 7.4): 0.8 mg
numbers of the cells in the G2/M phase [4]: ≥ 50%
pIC50 [5]: 5.62
pIC50 [6]: 6.48
pIC50 [7]: 6.53
pIC50 [8]: 6.26
pIC50 [9]: 6.17
pIC50 [10]: 5.88
effect μM (concentration at which cells gathered in the G2/M phase) [11]: 1.0 µM
% of G2/M ([11]; at the effect concentration): 48.10%
effect μM (concentration at which cells gathered in the G2/M phase) [12]: 0.5 µM
% of G2/M ([12]; at the effect concentration): 50.84%
effect μM (concentration at which cells gathered in the G2/M phase) [13]: 1.0 µM
% of G2/M ([13]; at the effect concentration): 70.10%
effect μM (concentration at which cells gathered in the G2/M phase) [14]: 0.5 µM
% of G2/M ([14]; at the effect concentration): 65.35%
effect μM (concentration at which cells gathered in the G2/M phase) [15]: 0.5 µM
% of G2/M ([15]; at the effect concentration): 76.72%
effect μM (concentration at which cells gathered in the G2/M phase) [16]: 0.5 µM
% of G2/M ([16]; at the effect concentration): 59.08%
effect μM (concentration at which cells gathered in the G2/M phase) [17]: 0.5 µM
% of G2/M ([17]; at the effect concentration): 52.37%
effect μM (concentration at which cells gathered in the G2/M phase) [18]: 0.5 µM
% of G2/M ([18]; at the effect concentration): 68.13%
stability in the blood plasma [19]: excellent
